Assay results published in paper PMC3760004 (Cancer research, 2013).
Entries after “also recorded” stand apart in the source; their conditions may differ.

Legend:
H292 = assay: Tumor cell growth assay; format: cell-based; settings: Homo sapiens, NCI-H292, 72 h
H1355 = assay: Tumor cell growth assay; format: cell-based; settings: Homo sapiens, NCI-H1355, 72 h
H460 = assay: Tumor cell growth assay; format: cell-based; settings: Homo sapiens, NCI-H460, 72 h
[1] = test system: HCT-116, Hela, Calu-1, H358 and H226; assay: Autophagy assay, LC3B staining and western blot; format: cell-based; settings: 5 cell lines, 3 days
KRAS-driven lung tumors = assay: Tumor volume by MRI in KRAS G12D driven lung cancer model; format: in vivo; settings: KRAS G12D mice, 4 weeks, Torin2 40 mg/kg q.d., AZD6244 25 mg/kg q.d.
SKBR3 = assay: Tumor cell growth assay; format: cell-based; settings: Homo sapiens, SK-BR-3, 72 h
[2] = test system: HCT116 cells, AktT308 phosphorylation; assay: Longer-term cellular signaling analysis; format: cell-based; settings: 100 nM
[3] = test system: HeLa cells, AktT308 phosphorylation; assay: Longer-term cellular signaling analysis; format: cell-based; settings: 100 nM
mTOR = assay: Pharmacodynamics by immunohistochemistry in KRAS G12D lung tumors; format: in vivo, Mice
Human mTORC1 complex = Human mTORC1 complex (Homo sapiens, UniProt P42345); assay: ATP competition assay; settings: biochemical kinase assays with increasing ATP concentrations
Hela cells = assay: Autophagy assay, acridine orange staining; format: cell-based; settings: 72 h
MDAMB231 = assay: Tumor cell growth assay; format: cell-based; settings: Homo sapiens, MDA-MB-231, 72 h
Calu1 = assay: 72-hour proliferation assay; format: cell-based, human
H2122 = assay: Tumor cell growth assay; format: cell-based; settings: Homo sapiens, NCI-H2122, 72 h
Hela S3 cells = assay: Cell cycle analysis by FACS; format: cell-based; settings: Hela S3, 48 hrs
BT-20 = assay: Tumor cell growth assay; format: cell-based; settings: Homo sapiens, BT-20, 72 h
HCT-116 = assay: Tumor cell growth assay; format: cell-based; settings: Homo sapiens, HCT-116, 72 h
ATR [4] = target: T1, ATR (Homo sapiens, UniProt Q13535); assay: ATR cellular activity, S317 of Chk1 after UV radiation, HCT-116 cells; format: cell-based
[5] = test system: human fibroblast AG01522 cell line; assay: Ionizing irradiation assay, clonogenic cell survival; format: cell-based; settings: AG01522, added 30min before irradiation
A549 = assay: Tumor cell growth assay; format: cell-based; settings: Homo sapiens, A549, 72 h
ATM [6] = target: T2, ATM (Homo sapiens, UniProt Q13315); format: cell-based
mTORC2 [7] = target: T3, mTORC2 (Homo sapiens, UniProt P42345); settings: combined biochemical and cellular profiling summary
MCF7 = assay: Tumor cell growth assay; format: cell-based; settings: Homo sapiens, MCF7, 72 h
pERK = assay: Pharmacodynamics by immunohistochemistry in KRAS G12D lung tumors; format: in vivo, Mice; settings: for pERK1/2 levels: after 4-week treatment
ATR kinase = assay: as above; format: in vivo, Mice; settings: after 4-week treatment
DNA-PK = DNA-PK (Homo sapiens, UniProt P78527); settings: combined biochemical and cellular profiling summary
T308 of Akt = assay: Western blot of T308 of Akt in HCT-116 cells; format: cell-based; settings: Homo sapiens, HCT-116, read-out: EC50, T308 of Akt
mTORC1 [8] = target: T4, mTORC1 (Homo sapiens, UniProt P42345); settings: 0.5 µM inhibitor 1 hour, then 500 µM ATP
H358 = assay: Tumor cell growth assay; format: cell-based; settings: Homo sapiens, NCI-H358, 72 h
H1299 = assay: Tumor cell growth assay; format: cell-based; settings: Homo sapiens, NCI-H1299, 72 h
mTORC2 [9] = target: T3, mTORC2; assay: Cellular wash-out assay, AktS473 phosphorylation, HCT116 cells; format: cell-based; settings: 100 nM for 1 hour, then wash-out
HS578T = assay: Tumor cell growth assay; format: cell-based; settings: Homo sapiens, Hs-578T, 72 h
H441 = assay: Tumor cell growth assay; format: cell-based; settings: Homo sapiens, NCI-H441, 72 h
[10] = test system: cancer cell lines (HCT116, Hela, Calu 1, H226, H358); assay: Apoptosis assay, PARP cleavage by western blot; format: cell-based; settings: 16 hours
Hela = assay: Tumor cell growth assay; format: cell-based; settings: Homo sapiens, 72 h
mTORC1 [11] = target: T4, mTORC1; settings: combined biochemical and cellular profiling summary
H1792 = assay: Tumor cell growth assay; format: cell-based; settings: Homo sapiens, NCI-H1792, 72 h
MCF10A = assay: Tumor cell growth assay; format: cell-based; settings: Homo sapiens, MCF-10A, 72 h
mTORC1 [12] = target: T4, mTORC1; assay: Cellular wash-out assay, S6KT389 phosphorylation, HCT116 cells; format: cell-based; settings: 100 nM for 1 hour, then wash-out
ATM [13] = target: T2, ATM; assay: Kinativ chemical proteomics profiling in cellular lysates; format: binding
ATR [14] = target: T1, ATR; assay: as above; format: binding
PIP4K2C = PIP4K2C (Homo sapiens, UniProt Q8TBX8); assay: as above; format: binding
SMG1 = SMG1 (Homo sapiens, UniProt Q96Q15); assay: as above; format: binding
mTORC1 [15] = target: T4, mTORC1; settings: cited from earlier work
PIP5K3 = PIP5K3 (Homo sapiens, UniProt Q9Y2I7); assay: Kinativ chemical proteomics profiling in cellular lysates; format: binding
[16] = 2-day, 40 mg/kg single daily dosing
[17] = combined biochemical and cellular profiling summary

T2 sequence (Q13315 whole entry, species assumed): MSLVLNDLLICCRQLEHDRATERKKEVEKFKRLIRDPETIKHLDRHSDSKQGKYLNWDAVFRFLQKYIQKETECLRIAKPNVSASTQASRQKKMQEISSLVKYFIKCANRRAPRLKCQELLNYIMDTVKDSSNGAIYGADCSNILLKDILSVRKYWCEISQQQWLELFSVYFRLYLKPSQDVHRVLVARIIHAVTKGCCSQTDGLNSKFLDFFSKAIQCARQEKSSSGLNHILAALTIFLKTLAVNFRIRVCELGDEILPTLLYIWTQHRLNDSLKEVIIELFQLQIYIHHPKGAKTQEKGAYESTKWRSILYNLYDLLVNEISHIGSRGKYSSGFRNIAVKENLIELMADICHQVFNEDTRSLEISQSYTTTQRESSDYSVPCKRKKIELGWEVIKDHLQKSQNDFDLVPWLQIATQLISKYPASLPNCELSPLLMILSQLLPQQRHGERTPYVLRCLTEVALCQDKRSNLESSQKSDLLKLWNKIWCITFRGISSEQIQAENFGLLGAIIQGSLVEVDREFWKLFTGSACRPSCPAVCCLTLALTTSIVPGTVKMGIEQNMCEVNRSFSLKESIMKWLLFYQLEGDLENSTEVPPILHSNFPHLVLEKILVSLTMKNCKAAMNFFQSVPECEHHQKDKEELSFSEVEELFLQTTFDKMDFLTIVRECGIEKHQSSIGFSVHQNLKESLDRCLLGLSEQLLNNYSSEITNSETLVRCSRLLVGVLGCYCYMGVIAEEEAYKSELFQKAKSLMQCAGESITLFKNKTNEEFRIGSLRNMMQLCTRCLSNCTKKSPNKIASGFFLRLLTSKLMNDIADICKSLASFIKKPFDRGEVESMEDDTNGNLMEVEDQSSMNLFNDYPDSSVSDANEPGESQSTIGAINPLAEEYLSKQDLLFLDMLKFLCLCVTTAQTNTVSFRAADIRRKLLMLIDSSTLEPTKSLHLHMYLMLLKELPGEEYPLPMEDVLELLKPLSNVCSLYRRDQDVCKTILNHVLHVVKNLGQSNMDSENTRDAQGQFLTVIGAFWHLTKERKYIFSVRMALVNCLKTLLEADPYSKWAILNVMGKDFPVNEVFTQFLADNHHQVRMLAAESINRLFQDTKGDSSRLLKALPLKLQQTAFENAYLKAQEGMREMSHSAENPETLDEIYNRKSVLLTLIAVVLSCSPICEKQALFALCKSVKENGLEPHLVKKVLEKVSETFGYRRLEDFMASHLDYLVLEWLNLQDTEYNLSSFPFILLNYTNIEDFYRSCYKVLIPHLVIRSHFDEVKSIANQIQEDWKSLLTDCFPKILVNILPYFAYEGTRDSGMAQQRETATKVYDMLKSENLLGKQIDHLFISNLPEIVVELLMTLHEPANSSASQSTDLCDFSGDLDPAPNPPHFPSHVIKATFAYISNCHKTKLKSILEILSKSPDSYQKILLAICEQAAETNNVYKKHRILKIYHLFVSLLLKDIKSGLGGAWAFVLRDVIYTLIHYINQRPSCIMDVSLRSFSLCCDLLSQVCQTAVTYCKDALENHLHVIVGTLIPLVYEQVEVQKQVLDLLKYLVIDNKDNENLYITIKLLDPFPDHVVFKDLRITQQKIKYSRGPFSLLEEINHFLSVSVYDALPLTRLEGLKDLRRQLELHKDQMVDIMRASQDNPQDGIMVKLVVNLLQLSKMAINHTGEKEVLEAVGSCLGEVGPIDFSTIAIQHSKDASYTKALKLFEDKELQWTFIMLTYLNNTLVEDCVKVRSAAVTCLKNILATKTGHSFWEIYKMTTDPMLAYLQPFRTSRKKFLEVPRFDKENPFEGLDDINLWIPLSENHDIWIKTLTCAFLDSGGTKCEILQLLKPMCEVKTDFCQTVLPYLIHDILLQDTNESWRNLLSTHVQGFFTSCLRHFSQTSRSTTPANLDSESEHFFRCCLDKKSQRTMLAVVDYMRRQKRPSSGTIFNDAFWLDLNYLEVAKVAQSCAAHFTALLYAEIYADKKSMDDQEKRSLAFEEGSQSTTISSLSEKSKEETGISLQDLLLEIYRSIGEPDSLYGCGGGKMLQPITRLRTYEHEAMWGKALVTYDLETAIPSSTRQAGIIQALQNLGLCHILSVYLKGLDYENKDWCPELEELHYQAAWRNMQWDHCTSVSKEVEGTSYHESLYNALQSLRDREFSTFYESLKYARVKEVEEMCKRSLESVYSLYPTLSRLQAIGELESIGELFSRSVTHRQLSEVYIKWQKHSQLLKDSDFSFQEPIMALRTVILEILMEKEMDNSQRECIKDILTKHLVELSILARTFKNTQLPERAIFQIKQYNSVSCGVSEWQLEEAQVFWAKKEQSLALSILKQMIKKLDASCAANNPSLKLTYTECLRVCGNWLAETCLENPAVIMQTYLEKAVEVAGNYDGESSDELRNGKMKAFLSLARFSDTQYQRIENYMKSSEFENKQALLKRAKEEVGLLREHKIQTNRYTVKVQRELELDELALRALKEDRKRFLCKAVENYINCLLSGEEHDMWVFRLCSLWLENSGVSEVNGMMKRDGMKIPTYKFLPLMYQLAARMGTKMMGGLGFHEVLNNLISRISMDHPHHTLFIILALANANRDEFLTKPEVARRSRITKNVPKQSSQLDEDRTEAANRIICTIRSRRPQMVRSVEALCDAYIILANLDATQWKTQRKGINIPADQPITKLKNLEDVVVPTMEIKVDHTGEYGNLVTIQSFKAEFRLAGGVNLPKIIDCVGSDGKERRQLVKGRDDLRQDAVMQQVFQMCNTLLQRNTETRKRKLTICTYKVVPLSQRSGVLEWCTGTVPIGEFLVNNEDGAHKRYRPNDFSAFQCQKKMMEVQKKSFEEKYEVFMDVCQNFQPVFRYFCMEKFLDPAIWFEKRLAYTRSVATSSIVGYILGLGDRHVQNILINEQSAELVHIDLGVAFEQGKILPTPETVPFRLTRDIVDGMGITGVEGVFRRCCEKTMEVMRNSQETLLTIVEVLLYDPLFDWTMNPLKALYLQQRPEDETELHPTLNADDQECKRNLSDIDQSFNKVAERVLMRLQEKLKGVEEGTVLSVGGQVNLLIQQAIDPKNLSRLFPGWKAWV
Chain of PIP5K3 (Q9Y2I7 whole entry, species assumed): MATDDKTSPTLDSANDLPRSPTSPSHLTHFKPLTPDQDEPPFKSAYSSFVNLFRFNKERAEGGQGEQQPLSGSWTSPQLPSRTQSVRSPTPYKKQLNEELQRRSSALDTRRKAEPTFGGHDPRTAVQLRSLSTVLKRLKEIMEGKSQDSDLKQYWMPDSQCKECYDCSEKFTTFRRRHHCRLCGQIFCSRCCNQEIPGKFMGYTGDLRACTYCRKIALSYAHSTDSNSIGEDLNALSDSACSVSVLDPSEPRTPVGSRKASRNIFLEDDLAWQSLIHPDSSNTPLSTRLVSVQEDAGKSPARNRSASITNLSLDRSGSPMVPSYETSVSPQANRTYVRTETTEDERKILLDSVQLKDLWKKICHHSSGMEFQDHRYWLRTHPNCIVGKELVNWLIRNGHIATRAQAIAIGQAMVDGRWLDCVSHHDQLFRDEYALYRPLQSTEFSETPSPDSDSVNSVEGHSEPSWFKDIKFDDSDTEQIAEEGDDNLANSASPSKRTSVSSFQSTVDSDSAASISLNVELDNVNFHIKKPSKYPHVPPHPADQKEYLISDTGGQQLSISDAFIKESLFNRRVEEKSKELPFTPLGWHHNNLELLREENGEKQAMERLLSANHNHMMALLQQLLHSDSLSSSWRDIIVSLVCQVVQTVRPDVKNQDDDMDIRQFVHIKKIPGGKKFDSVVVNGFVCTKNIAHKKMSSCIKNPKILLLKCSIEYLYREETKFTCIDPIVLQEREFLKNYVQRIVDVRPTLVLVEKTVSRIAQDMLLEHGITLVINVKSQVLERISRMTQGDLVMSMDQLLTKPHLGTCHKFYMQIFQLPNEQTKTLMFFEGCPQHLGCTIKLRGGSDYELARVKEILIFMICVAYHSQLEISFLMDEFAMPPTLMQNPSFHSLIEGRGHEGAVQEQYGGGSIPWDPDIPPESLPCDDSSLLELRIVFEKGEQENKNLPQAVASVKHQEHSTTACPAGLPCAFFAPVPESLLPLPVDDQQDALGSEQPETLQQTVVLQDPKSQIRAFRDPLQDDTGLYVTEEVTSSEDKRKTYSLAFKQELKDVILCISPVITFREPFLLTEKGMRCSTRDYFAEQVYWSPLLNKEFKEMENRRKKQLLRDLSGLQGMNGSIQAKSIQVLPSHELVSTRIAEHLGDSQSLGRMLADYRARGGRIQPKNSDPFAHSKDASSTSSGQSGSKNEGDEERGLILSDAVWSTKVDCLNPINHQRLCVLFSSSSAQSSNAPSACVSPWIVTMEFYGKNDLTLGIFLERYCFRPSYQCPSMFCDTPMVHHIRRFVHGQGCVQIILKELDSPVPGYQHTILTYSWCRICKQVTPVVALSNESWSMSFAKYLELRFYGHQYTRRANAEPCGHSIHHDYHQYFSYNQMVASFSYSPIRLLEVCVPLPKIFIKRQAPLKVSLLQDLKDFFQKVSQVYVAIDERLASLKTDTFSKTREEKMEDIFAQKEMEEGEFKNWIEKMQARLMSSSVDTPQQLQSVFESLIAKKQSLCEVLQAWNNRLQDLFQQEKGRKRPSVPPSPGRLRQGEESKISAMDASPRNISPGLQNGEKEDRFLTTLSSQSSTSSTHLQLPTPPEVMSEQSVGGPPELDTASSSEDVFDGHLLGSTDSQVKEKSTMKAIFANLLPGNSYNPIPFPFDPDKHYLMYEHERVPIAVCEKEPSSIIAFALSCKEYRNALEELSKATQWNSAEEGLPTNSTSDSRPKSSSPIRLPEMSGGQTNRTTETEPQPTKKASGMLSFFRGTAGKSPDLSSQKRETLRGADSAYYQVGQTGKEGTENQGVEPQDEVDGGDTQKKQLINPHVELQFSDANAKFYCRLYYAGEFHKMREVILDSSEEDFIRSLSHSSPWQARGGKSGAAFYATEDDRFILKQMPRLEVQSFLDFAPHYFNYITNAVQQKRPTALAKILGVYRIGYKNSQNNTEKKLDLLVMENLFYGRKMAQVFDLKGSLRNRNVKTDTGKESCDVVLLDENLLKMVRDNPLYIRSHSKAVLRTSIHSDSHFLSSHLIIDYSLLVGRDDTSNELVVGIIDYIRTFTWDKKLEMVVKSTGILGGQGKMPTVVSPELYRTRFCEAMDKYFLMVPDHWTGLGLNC

Compound `Nc1ccc(-c2ccc3ncc4ccc(=O)n(-c5cccc(C(F)(F)F)c5)c4c3c2)cn1` [Torin2, 9-(6-aminopyridin-3-yl)-1-(3-(trifluoromethyl)phenyl)benzo[h][1,6]naphthyridin-2(1H)-one] has a GI50 (H292) of 10.1 nM, a GI50 (H1355) of 25.8 nM and a GI50 (H460) of 45.7 nM. For the same compound, the LC3-1/II autophagosome markers [1] was “dose dependent increase of LC3-1/II autophagosome markers”, the “tumor volume / tumor growth by MRI” value (KRAS-driven lung tumors) was “did not yield significant efficacy; also recorded: neither Torin2 (40 mg/kg, q.d.) nor AZD6244 (25 mg/kg, q.d.) alone resulted in a significant inhibition of tumor volume” and the GI50 (SKBR3) was 123 nM. The “recovery of AktT308 phosphorylation by 72 hours” value [2] was “partially”, the “recovery of AktT308 phosphorylation by 72 hours” value [3] was “completely recovered” and the “pAkt(T308) by immunohistochemistry” value (mTOR; [16]) was “partly suppressed”. The “pS6K(T389) and p4EBP1(T37/46) by immunohistochemistry” value (mTOR; [16]) was “strongly suppressed”, the “pS6K(T389) and p4EBP1(T37/46) levels” value (mTOR; after 4-week treatment) was “showed some recovery” and the “mode of mTOR inhibition” value (Human mTORC1 complex) was “ATP-competitive fashion”. The “punctate acridine orange staining (autophagy)” value (Hela cells) was “dose dependent increase in punctate acridine staining”, the GI50 (MDAMB231) was 108 nM and the “sensitivity of proliferation, Calu1” value (Calu1) was “relatively more resistant”. For the same compound, the GI50 (H2122) was 13.2 nM, the “cell cycle distribution by flow cytometry” value (Hela S3 cells) was “dose-dependent decrease in G1 cells and an increase in S-phase, sub-G1 phase cells and cell death” and the GI50 (BT-20) was 219 nM. For the same compound, the “concentration at which PI3K is inhibited” value (PI3K; [17]) was “above 200 nM”, the EC50 (PI3K; read-out: apparent EC50 against T308 with S473D mutant of Akt, PC3 AktS473D cell line) was 200 nM and the GI50 (HCT-116) was 60.7 nM. For the same compound, the “concentration at which ATR is inhibited” value (ATR [4]; [17]) was 20 to 100 nM, the “sensitization of IR treatment, clonogenic survival” value [5] was “dose dependent sensitization of the IR treatment” and the GI50 (A549) was 31.1 nM. For the same compound, the “concentration at which ATM is inhibited” value (ATM [6]; [17]) was 20 to 100 nM, the “concentration at which mTORC2 is inhibited” value (mTORC2 [7]) was “less than 10 nM” and the GI50 (MCF7) was 41.1 nM. The pERK1/2 levels (pERK) was “significantly increased”, the “pCHK1(S345)” value (ATR kinase) was “slightly decreased” and the “concentration at which DNA-PK is inhibited” value (DNA-PK) was 20 to 100 nM. The EC50 (T308 of Akt) was less than 10 nM, the “recovery of mTORC1 kinase activity after removal of drug” value (mTORC1 [8]; about 75 minutes window) was “sustained inhibition of mTORC1” and the GI50 (H358) was 105 nM. For the same compound, the GI50 (H1299) was 23.6 nM, the “time for AktS473 phosphorylation (mTORC2 function) to recover after wash-out” value (mTORC2 [9]) was “approximately 4 hours” and the GI50 (HS578T) was 62.4 nM. For the same compound, the GI50 (H441) was 20.5 nM, the “apoptosis (PARP cleavage) in H358” value [10] was “induced strong apoptosis” and the GI50 (Hela) was 29.3 nM. The “concentration at which mTORC1 is inhibited” value (mTORC1 [11]) was “less than 10 nM”, the GI50 (H1792) was 19.8 nM and the GI50 (MCF10A) was 32.1 nM.

In the case of `COc1ccc(-c2ccc3c(N4CCOC[C@@H]4C)nc(N4CCOC[C@@H]4C)nc3n2)cc1CO` [AZD8055, reference compound], the “sensitivity of proliferation, Calu1” value (Calu1) is reported as “relatively more resistant”, the “time for S6KT389 phosphorylation (mTORC1 function) to recover after wash-out” value (mTORC1 [12]) is reported as no more than 1 h and the “time for AktS473 phosphorylation (mTORC2 function) to recover after wash-out” value (mTORC2 [9]) is reported as no more than 1 h.

In the case of `Cn1cnc2c(F)c(Nc3ccc(Br)cc3Cl)c(C(=O)NOCCO)cc21` [AZD6244], the “tumor volume / tumor growth by MRI” value (KRAS-driven lung tumors) is reported as “neither Torin2 (40 mg/kg, q.d.) nor AZD6244 (25 mg/kg, q.d.) alone resulted in a significant inhibition of tumor volume”, the pERK by immunohistochemistry (pERK; 2-day, AZD6244 25 mg/kg) is reported as “profound inhibition” and the pERK1/2 levels (pERK) is reported as “slightly recovered”.

Work on `CCC(=O)N1CCN(c2ccc(-n3c(=O)ccc4cnc5ccc(-c6cnc7ccccc7c6)cc5c43)cc2C(F)(F)F)CC1` [Torin1, 1-(4-(4-propionylpiperazin-1-yl)-3-(trifluoromethyl)phenyl)-9-(quinolin-3-yl)benz o[h][1,6]naphthyridin-2(1H)-one] yielded an IC50 (ATM [13]) of 640 nM, an IC50 (ATR [14]) of less than 10 nM and an IC50 (PIP4K2C) greater than 10 µM. For the same compound, the EC50 (ATR [4]) was greater than 1000 nM, the EC50 (ATM [6]) was greater than 1000 nM and the IC50 (SMG1) was 4.4 µM. For the same compound, the “duration of suppression of S6K T389 phosphorylation after removal of the drug” value (mTORC1 [15]) was “up to 16 h”, the “duration of sustained inhibition of mTORC1 kinase activity after removal of drug” value (mTORC1 [8]; 4EBP1 phosphorylation) was “approximately 75 minutes” and the IC50 (PIP5K3) was greater than 10 µM.
